Results taken from US7108865B2, “Controlled-release dosage forms of azithromycin” (Pfizer Inc, priority 1994, dated 2006).

Assays:
[1] = Visual Analogue Scale gastrointestinal side effects after 2 g oral capsule dose, single vs divided (Example 1); assay type: in vivo, human; parameters: key to Mean Cumulative Score (Visual Analogue Scale), abdominal pain / Mean Cumulative Score (Visual Analogue Scale), nausea / Mean Cumulative Score (Visual Analogue Scale), regurgitation / Mean Cumulative Score (Visual Analogue Scale), abdominal cramping: per-subject sum of 0–10 VAS scores over 240 h, averaged over group; conditions: for Incidence of Visual-Analogue-Scale score >1, abdominal cramping / Incidence of Visual-Analogue-Scale score >1, abdominal pain / Incidence of Visual-Analogue-Scale score >1, nausea / Incidence of Visual-Analogue-Scale score >1, regurgitation / Incidence of Visual-Analogue-Scale score >4, abdominal cramping / Incidence of Visual-Analogue-Scale score >4, abdominal pain / Incidence of Visual-Analogue-Scale score >4, nausea / Incidence of Visual-Analogue-Scale score >4, regurgitation: any time during 240 hr post-dose, #patients reporting score/total # patients; for Mean Cumulative Score (Visual Analogue Scale), abdominal cramping / Mean Cumulative Score (Visual Analogue Scale), abdominal pain / Mean Cumulative Score (Visual Analogue Scale), nausea / Mean Cumulative Score (Visual Analogue Scale), regurgitation: entire 240 hour post-dose period
Experimental: In a double-blind, randomized, placebo-controlled parallel group study, healthy male subjects were divided into three groups. Group A received a single 2 g azithromycin dose as eight 250 mg azithromycin capsules (“bolus dosing” group). Group B received the same total dose, administered as eight 250 mg capsules at the rate of one 250 mg capsule each 30 minutes for 3.5 hr (“divided dosing” group). Group C received matching placebo capsules. All subjects received eight capsules of drug or placebo at time 0, and a capsule of drug or placebo every half-hour for 3.5 hr. All subjects were dosed after an overnight fast. […] Tmax is the time at which Cmax is achieved.
Prior to dosing and each blood sampling time, each subject filled out a questionnaire, which consisted of a series of “Visual Analogue Scales” in which the subject was required to rate, on a scale of 0–10, the severity of certain potential side effects. The subjects were instructed that “0” indicated an absent effect and “10” indicated the worst possible effect. The subjects were instructed to interpolate between 0 and 10 for moderate side effects.
Analysis of side effect visual-analogue-scale data was carried out in two formats. In the first format (Table II), the analysis concentrated on the general incidence of side effects of a particular type. For each side effect type (e.g., abdominal pain), Table II reports the number of subjects who reported a score >1 at any time during the 240 hr post-dosing, and the number of subjects who reported a score >4 at any time during the 240 hr post-dosing. This analysis assumes that all scores >1 represent a real side effect occurrence, however mild or severe. A score >4 is presumed to reflect a moderate-to-severe side effect occurrence.
In the second format (Table III), the analysis reflects the general severity and duration of side effects. For a particular side effect (e.g., Abdominal Pain) in a particular subject, all visual-analogue-scale scores (over the 240 hr post-dose period) were summed to give a “cumulative score” over the entire time period of evaluation. “Cumulative scores” for all members of a treatment group were summed, and divided by the number of subjects in the group, to give a Mean Cumulative Score. […] Table III presents Mean Cumulative Scores for abdominal pain, nausea, regurgitation, and abdominal cramping.

[2] = Serum azithromycin pharmacokinetics after 2 hr intravenous infusion (Example 3); assay type: in vivo; conditions: male, human, 2 hr infusion
Experimental: Healthy male subjects were divided into four groups. Group A received a 2 hr intravenous infusion of a placebo solution (0 g azithromycin). Group B received a 2 hr intravenous infusion of a 1 g dose of azithromycin. Group C received a 2 hr intravenous infusion of a 2 g dose of azithromycin. Group D received a 2 hr intravenous infusion of a 4 g dose of azithromycin. […] All subjects were dosed after an overnight fast.
Tmax is the time at which Cmax is achieved.

[3] = 3,995 patients, all dose levels combined, cited from earlier work
[4] = human body; cited from earlier work
[5] = cited from earlier work
[6] = 250 mg per half-hr for 3.5 hr (2 g total), oral
[7] = 250 mg/half-hr for 3.5 hr (2 g total), oral

AUC(0-inf) ([2]; 1.0 g total IV dose, n = 6): 23400 ng·h/mL | Cmax ([2]; 1.0 g total IV dose, n = 6): 3110 ng/mL | Tmax ([2]; 1.0 g total IV dose, n = 6): 1.9 h | AUC(0-inf) ([2]; 2.0 g total IV dose, n = 6): 45600 ng·h/mL | Cmax ([2]; 2.0 g total IV dose, n = 6): 6840 ng/mL | Tmax ([2]; 2.0 g total IV dose, n = 6): 1.8 h | AUC(0-inf) ([2]; 4.0 g total IV dose, n = 5): 82100 ng·h/mL | Cmax ([2]; 4.0 g total IV dose, n = 5): 9910 ng/mL | Tmax ([2]; 4.0 g total IV dose, n = 5): 1.1 h
Structure (SMILES): CC[C@H]1OC(=O)[C@H](C)[C@@H](O[C@H]2C[C@@](C)(OC)[C@@H](O)[C@H](C)O2)[C@H](C)[C@@H](O[C@@H]2O[C@H](C)C[C@H](N(C)C)[C@H]2O)[C@](C)(O)C[C@@H](C)CN(C)[C@H](C)[C@@H](O)[C@]1(C)O [azithromycin, 9a-aza-9a-methyl-9-deoxo-9a-homoerythromycin A]
Incidence of Visual-Analogue-Scale score >1, abdominal cramping [1, 6]: 4/14 | Incidence of Visual-Analogue-Scale score >1, abdominal pain [1, 6]: 6/14 | Incidence of Visual-Analogue-Scale score >1, nausea [1, 6]: 3/14 | Incidence of Visual-Analogue-Scale score >1, regurgitation [1, 6]: 0/14 | Incidence of Visual-Analogue-Scale score >4, abdominal cramping [1, 6]: 0/14 | Incidence of Visual-Analogue-Scale score >4, abdominal pain [1, 6]: 1/14 | Incidence of Visual-Analogue-Scale score >4, nausea [1, 6]: 0/14 | Incidence of Visual-Analogue-Scale score >4, regurgitation [1, 6]: 0/14 | Mean Cumulative Score (Visual Analogue Scale), abdominal cramping [1, 7]: 4.46 | Mean Cumulative Score (Visual Analogue Scale), abdominal pain [1, 7]: 6.31 | Mean Cumulative Score (Visual Analogue Scale), nausea [1, 7]: 2.77 | Mean Cumulative Score (Visual Analogue Scale), regurgitation [1, 7]: 1.38 | Incidence of Visual-Analogue-Scale score >1, abdominal cramping ([1]; 2 g single oral dose): 6/15 | Incidence of Visual-Analogue-Scale score >1, abdominal pain ([1]; 2 g single oral dose): 6/15 | Incidence of Visual-Analogue-Scale score >1, nausea ([1]; 2 g single oral dose): 2/15 | Incidence of Visual-Analogue-Scale score >1, regurgitation ([1]; 2 g single oral dose): 0/15 | Incidence of Visual-Analogue-Scale score >4, abdominal cramping ([1]; 2 g single oral dose): 1/15 | Incidence of Visual-Analogue-Scale score >4, abdominal pain ([1]; 2 g single oral dose): 2/15 | Incidence of Visual-Analogue-Scale score >4, nausea ([1]; 2 g single oral dose): 1/15 | Incidence of Visual-Analogue-Scale score >4, regurgitation ([1]; 2 g single oral dose): 0/15 | Mean Cumulative Score (Visual Analogue Scale), abdominal cramping ([1]; 2 g single oral dose): 4.67 | Mean Cumulative Score (Visual Analogue Scale), abdominal pain ([1]; 2 g single oral dose): 6.4 | Mean Cumulative Score (Visual Analogue Scale), nausea ([1]; 2 g single oral dose): 1.93 | Mean Cumulative Score (Visual Analogue Scale), regurgitation ([1]; 2 g single oral dose): 0.53 | patients reporting gastrointestinal side effects ([3]; oral): 9.6% | incidence of abdominal pain [3]: 2.5% | incidence of diarrhea [3]: 3.6% | incidence of nausea [3]: 2.6% | elimination half-life [4]: about 69 hours | oral bioavailability of an azithromycin capsule ([5]; typical value): about 38% | oral bioavailability ([5]; used to convert intravenous to equivalent oral doses): 37%
